The text below walks through data of PMC9105386, “Development and Characterization of Indole-Responsive Whole-Cell Biosensor Based on the Inducible Gene Expression System from Pseudomonas putida KT2440” (International Journal of Molecular Sciences, 2022).

For this test, the target named is T1, TrpI (PpTrpI/PPP_RS00425 inducible system) (Pseudomonas putida, UniProt Q88RP5).
T1 sequence (Q88RP5 1-298): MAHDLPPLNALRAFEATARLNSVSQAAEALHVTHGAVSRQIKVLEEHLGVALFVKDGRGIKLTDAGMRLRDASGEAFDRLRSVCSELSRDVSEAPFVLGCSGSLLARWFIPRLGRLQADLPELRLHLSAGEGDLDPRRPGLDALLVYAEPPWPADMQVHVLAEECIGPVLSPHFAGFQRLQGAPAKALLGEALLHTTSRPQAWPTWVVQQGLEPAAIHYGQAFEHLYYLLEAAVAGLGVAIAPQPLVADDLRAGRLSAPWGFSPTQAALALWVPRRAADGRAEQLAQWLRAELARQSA
Briefly: RFP reporter induction in whole cells, Hill fit. It counts as cell-based. The conditions noted are these: read-out: Km. The text has this:
RFP reporter induction in whole cells, Hill fit on TrpI (PpTrpI/PPP_RS00425 inducible system)

In the case of `c1ccc2[nH]ccc2c1` [compound 1, indole], the EC50 was found to be 1350 µM.
